In patent publication EP0000644A2, “Lower cycloalkyl substituted-benzene derivatives, the preparation thereof and their pharmaceutical compositions” (FUJISAWA PHARMACEUTICAL CO., LTD., priority 1977, dated 1979):
≈ marks a conversion by molar mass, not a printed value. Where a name gives a salt, the structure may show the parent alone. Read-outs that look alike come from different tables or passages of the source.

What was measured:
erythema = test: Ultra-violet erythema test, oral administration; type: in vivo, Hartley rats; details: ten animals per group; oral suspension, half one hour before and half just after ultra-violet radiation; erythema scored two hours later; effective when total of 3 points below 1.5; read-out: Score
Method: Ten male 5 week old Hartley rats, each weighing about 350 g., were used per group. The backs of each animal were depilated 24 hours before the test. An adhesive tape with 3 small holes of 9 mm. diameter was placed on the depilated skin and then the animal was exposed to ultra-violet radiation from an ultra-violet lamp (500 W, manufactured by Engelhard Hanovia Inc.) at a distance of 13 cm. for 80 seconds. Two hours later, the degree of erythema was estimated on the basis of the following scores: • 1.0 : eryhthema with clear border, • 0.5 : erythema with unclear border, • 0.0 : scarcely any erythema.
The valuation was determined as follows:
Each dosage of the test compound was administered orally in a suspension form in 20 ml. of 0.5% aqueous methyl cellosolve aqueous solution. Half of the test sample was administered one hour before the radiation and the remaining half of the test solution was administered just after radiation.

strip of stomach fundus = test: Contraction of isolated stomach fundus strip induced by arachidonic acid; type: cell-based, Sprague-Dawley rats; details: Rattus norvegicus, 0.25 h
Method: The stomach was removed from Sprague-Dawley rats, weighing about 180 g., after the animals were fasted overnight. A strip of stomach fundus was suspended under initial tension of 0.6 g. in a 10 ml. organ bath containing Tyrode solution. Arachidonic acid (1.0 x 10^-5 g/ml.) was employed as the spasmogen. Several doses of the test compound were added to the individnal bath fluid 15 minutes before the addition of arachidonic acid. The value of contraction induced by arachidonic acid was measured and plotted as a dose-activity curve. The ED50 value of each test compound was obtained by interpolation from the dose-activity curve.

[1] = arachidonic acid 1.0 x 10^-5 g/ml. as spasmogen, test compound added 15 minutes before, interpolated from dose-activity curve, read-out: ED50 (the source's name)

Row | Structure (SMILES) | minimal effective dose (erythema) [mg/kg] | IC50 (strip of stomach fundus; [1]) [µg/mL] | IC50 (strip of stomach fundus; read-out: ED50) [µg/mL]
1 | COCC(C(=O)O)c1ccc(C2CCCCC2)c(Cl)c1 (centres unmarked) [4-(3), sodium 2-(3-chloro-4-cyclohexylphenyl)-3-methoxypropionatc] | 8 to 10 | 0.084 | –
2 | COC(=O)C(COC(C)=O)c1ccc(C2CCCCC2)c(Cl)c1 (centres unmarked) [5-(3), methyl 3-acetoxy-2-(3-chloro-4-cyclohexylphenyl) propionate] | 8 to 10 | 0.12 (≈ 0.354 µM) | –
3 | COCC(CO)c1ccc(C2CCCCC2)c(Cl)c1 (centres unmarked) [7-(2), 2-(3-chloro-4-cyclohexylphenyl)-3-methoxypropanol] | – | 0.5 (≈ 1.77 µM) | –
4 | CCCOCC(C(=O)[O-])c1ccc(C2CCCCC2)cc1.[Na+] (centres unmarked) [12-(2), sodium 2-(4-cyclohexylphenyl)-3-propoxypropionate] | 8 to 10 | – | 2.6
5 | CS(=O)(=O)NCC(CO)c1ccc(C2CCCCC2)cc1 (centres unmarked) [14-(3), 2-(4-cyclohexylphenyl)-3-mesylaminopropanol] | 8 to 10 | 22 (≈ 70.6 µM) | –
6 | CC(=O)CC(C(=O)O)c1ccc(C2CCCCC2)cc1 (centres unmarked) [15-(2), 2-(4-cyclohexylphenyl)-3-acetylpropionic acid] | 8 to 10 | 3.2 (≈ 11.7 µM) | –
7 | CC(=O)CC(CO)c1ccc(C2CCCCC2)cc1 (centres unmarked) [16-(3), 2-(4-cyclohexylphenyl)-3-acetylpropanol] | 8 to 10 | – | –
8 | COCC(C(=O)O)c1ccc(C2CCCCC2)cc1 (centres unmarked) [17-(2), 2-(4 cyclohexylphenyl)-3-methoxypropionic acid] | 8 to 10 | 1.3 (≈ 4.96 µM) | –
9 | CNCC(CO)c1ccc(C2CCCCC2)cc1 (centres unmarked) [21-(2), 2-(4-cyclohcxylphenyl)-3-mcthylaminopropanol hydrochloride] | 8 to 10 | – | –
10 | CC(=O)CC(C(=O)O)c1ccc(C2CCCCC2)c(Cl)c1 (centres unmarked) [24-(2), 2-(3-chloro-4-cyclohexylphenyl)-3-acetylpropionic acid] | 8 to 10 | 4.2 (≈ 13.6 µM) | –
11 | O=C(O)C(CO)c1ccc(C2CCCCC2)cc1 (centres unmarked) [Example 2, p-cyclohexyltropic acid] | 8 to 10 | 2.6 (≈ 10.5 µM) | –
12 | OCC(CO)c1ccc(C2CCCCC2)c(Cl)c1 [Example 7-(1), 2-(3-chloro-4-cyclohexylphenyl)propane-1,3-diol] | 8 to 10 | 1.2 (≈ 4.46 µM) | –
13 | CC(=O)OCC(COC(C)=O)c1ccc(C2CCCCC2)c(Cl)c1 [Example 8, 1,3-diacetoxy-2-(3-chloro-4-cyclohexylphenyl)propane] | 8 to 10 | – | –
14 | O=C(O)C(CO)c1ccc(C2CCCCC2)c(Cl)c1 (centres unmarked) [Example 9, m-chloro-p-cyclohexyl tropic acid] | 8 to 10 | 0.26 (≈ 0.919 µM) | –
15 | COC(=O)C(CN1CCCCC1)c1ccc(C2CCCCC2)c(Cl)c1 (centres unmarked) [Example 11, methyl 2-(3-chloro-4-cyclohexylphcnyl)-3-piperidinopropionate hydrochloride] | 8 to 10 | – | –
16 | COCC(COC(=O)COc1ccc(Cl)cc1)c1ccc(C2CCCCC2)cc1 (centres unmarked) [Example 20, 1-(4-chlorophenoxyacetoxy)-2-(4-cyclohexylphenyl)-3-methoxypropane] | 8 to 10 | – | –
17 | CNCC(C(=O)O)c1ccc(C2CCCCC2)cc1 (centres unmarked) [Example 22, sodium 2-(4-cyclohexylphenyl)-3-methylaminopropionate monohydrate] | 8 to 10 | – | –
18 | COCC(CO)c1ccc(C2CCCCC2)c(Cl)c1 (centres unmarked) [Example 23, 2-(3-chloro-4-cyclohexylphenyl)-3-methoxypropanol] | 8 to 10 | – | –
19 | CC(=O)Oc1ccccc1C(=O)O [aspirin, reference compound] | – | – | 3.1 (≈ 17.2 µM)
